Earlier results, collected in patent US11123365B2, “Compositions comprising palmitoylethanolamide and hydrogen water, and methods thereof” (Perricone Hydrogen Water Company, LLC, priority 2019, dated 2021).

- solubility in water: less than 20 mM
Compound: CCCCCCCCCCCCCCCC(=O)NCCO [palmitoylethanolamide]
